Here are results for 17 compounds from patent US20100292222A1, “CHEMICAL COMPOUNDS 751” (ASTRAZENECA AB, priority 2009, published 2010).

What is called IC50 is the concentration that inhibits the measured activity by half. Read a high IC50 as weaker potency.

For this test, the target named is T1, Androgen Receptor (AR) (Homo sapiens, UniProt P10275, T878A).
T1 construct: cell based immuno-fluorescence assay using the LNCaP prostate epithelial cell line; host or cells: LNCaP clone FGC prostate carcinoma cells
T1 sequence (P10275 1-920 T878A): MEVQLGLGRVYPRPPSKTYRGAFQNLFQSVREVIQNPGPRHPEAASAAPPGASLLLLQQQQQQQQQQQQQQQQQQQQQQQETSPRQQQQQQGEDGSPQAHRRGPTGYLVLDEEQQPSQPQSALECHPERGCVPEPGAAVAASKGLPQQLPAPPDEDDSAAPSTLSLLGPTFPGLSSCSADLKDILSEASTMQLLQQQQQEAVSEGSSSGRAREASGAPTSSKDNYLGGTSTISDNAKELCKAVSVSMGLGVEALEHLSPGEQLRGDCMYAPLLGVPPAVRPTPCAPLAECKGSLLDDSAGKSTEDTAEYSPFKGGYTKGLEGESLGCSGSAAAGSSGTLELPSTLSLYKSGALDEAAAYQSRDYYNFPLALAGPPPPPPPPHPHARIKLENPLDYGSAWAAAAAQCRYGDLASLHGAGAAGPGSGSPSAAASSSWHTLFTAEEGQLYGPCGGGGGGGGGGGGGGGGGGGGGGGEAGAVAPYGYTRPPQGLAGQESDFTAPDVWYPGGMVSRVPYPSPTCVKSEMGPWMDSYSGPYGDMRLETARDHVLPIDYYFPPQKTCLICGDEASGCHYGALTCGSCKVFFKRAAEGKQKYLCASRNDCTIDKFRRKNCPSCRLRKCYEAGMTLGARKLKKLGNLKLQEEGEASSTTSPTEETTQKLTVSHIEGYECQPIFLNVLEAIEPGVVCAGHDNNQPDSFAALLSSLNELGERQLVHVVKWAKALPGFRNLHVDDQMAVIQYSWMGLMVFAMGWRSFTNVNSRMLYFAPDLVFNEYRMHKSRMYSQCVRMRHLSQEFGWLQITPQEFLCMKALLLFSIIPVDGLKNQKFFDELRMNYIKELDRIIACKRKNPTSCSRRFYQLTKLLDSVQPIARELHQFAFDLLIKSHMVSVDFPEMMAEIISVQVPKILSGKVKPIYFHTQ
Kind of test: LNCaP Androgen Receptor Down-Regulation Cell Assay. It counts as cell-based. The note with it: LNCaP prostate carcinoma cell line; 20-22 hours incubation; immunofluorescence; 50% reduction of the AR signal. As for the experimental part: The ability of compounds to reduce Androgen Receptor (AR) numbers was assessed in a cell based immuno-fluorescence assay using the LNCaP prostate epithelial cell line.
This immunofluorescence end point assay measures the ability of a test compound to down-regulate and reduce measured levels of the AR in the LNCaP prostate carcinoma cell line (LNCaP clone FGC (CRL-1740) obtained from the American Type Culture Collection (ATCC)).
LNCaP cells were cultured in Growth Medium (phenol red free Roswell Park Memorial Institute (RPMI) 1640 (Invitrogen Code no. 11835-063) containing 2 mM L-Glutamine (Invitrogen Code no. 25030-024) and 1% (v/v) Penicillin/Streptomycin (10000 units/ml Penicillin and 10000 μg/ml of Streptomycin utilising penicillin G (sodium salt) and streptomycin sulphate: prepared in normal saline, Invitrogen Code no. 15140122) and 10% (v/v) foetal bovine serum (FBS)) in a 5% CO2 air incubator at 37° C. Cells for assay were harvested from T175 stock flasks by washing once in PBS (phosphate buffered saline, pH 7.4) (Invitrogen Code no. 14190-094) and harvested using 5 mls of 1× Trypsin/ethylaminediaminetetraacetic acid (EDTA) (10× Trypsin-EDTA, 5.0 g/L Trypsin, 2.0 g/L of EDTA•4Na and 8.5 g/L of NaCl, without Phenol Red, Invitrogen Code no. 15400-054) diluted in PBS solution. A 5 ml volume of Growth Medium was added to each flask (as above except that 5% (v/v) charcoal stripped FBS (HyClone Code no. SH30068.03) was included instead of 10% (v/v) FBS). Cells were syringed at least twice using a sterile 18G×1.5″ (1.2×40 mm) broad gauge needle and cell density was measured using a haemocytometer. Cells were further diluted in Growth Medium plus 5% (v/v) charcoal stripped FBS and seeded at a density of 6.5×10^3 cells per well (in 90 ul) into transparent, black, tissue culture treated 96 well plates (Packard, No. 6005182).
Test data reported herein was generated using two different compounds preparation and dosing methods. In method (1) a 10 mM compound stock solution in 100% (v/v) DMSO was serially diluted in 4-fold steps in 100% (v/v) DMSO using a Thermo Scientific Matrix SerialMate. The diluted compounds were then further diluted 1 in 30 in assay media using a Thermo Scientific Matrix PlateMate and a 10 μl aliquot of this dilution was dosed to cells manually using a multi-channel pipette. In method (2) starting with a 10 mM compound stock solution, the Labcyte Echo 550 was used to generate a compound concentration response set diluted in 30 μl of assay media. The Echo 550 is a liquid handler that uses acoustic technology to perform direct microplate-to-microplate transfers of DMSO compound solutions. The system can be programmed to transfer volumes as low as […] in multiple increments between microplates and in so doing generates a serial dilution of compound which is then back-filled to normalise the DMSO is concentration across the dilution range. A 10 μl volume of diluted compound is then dosed to cells using a Thermo Scientific Matrix PlateMate.
Plates were incubated overnight at 37° C., 5% CO2. Wells were then dosed with compound prepared by one of the 2 methods above and further incubated for 20-22 hours at 37° C., 5% CO2. Plates were fixed by the addition of 20 μl of 10% (v/v) formaldehyde solution (in PBS) to each well (final formaldehyde conc.=1.67% (v/v)) and left at room temperature for 10 mins. This fixative solution was removed and cells were washed with 250 μl of PBS/0.05% (v/v) Tween 20 (PBST) using an automated plate washer. This process was then repeated twice more.
Immunostaining was performed at room temperature. Cells were permeabilised by the addition of 35 μl of PBS containing 0.5% Tween 20 and incubated for 1 hour at room temperature. Permeabilisation solution was removed and cells were washed with 250 μl of PBST using an automated plate washer. This process was then repeated twice more. […]
`CC(=O)N1CCCN(CCOc2ccc(C3CCN(c4ccc5nnc(C(F)(F)F)n5n4)CC3)cc2)CC1` [Example 14, 6-(4-{4-[2-(4-acetyl-1,4-diazepan-1-yl)ethoxy]phenyl}piperidin-1-yl)-3-(trifluoromethyl)[1,2,4]-triazolo[4,3-b]pyridazine] returned an IC50 of 160 nM.

Compound `CCN1CCN(CCCOc2ccc(C3CCN(c4ccc5nnc(C(F)(F)F)n5n4)CC3)cc2)CC1=O` [Example 15, 1-ethyl-4-[3-(4-{1-[3-(trifluoromethyl)[1,2,4]triazolo[4,3-b]pyridazin-6-yl]piperidin-4-yl}phenoxy)propyl]piperazin-2-one] displayed an IC50 of 240 nM.

`CC(C)N1CCN(CCCOc2ccc(C3CCN(c4ccc5nnc(C(F)(F)F)n5n4)CC3)cc2)CC1=O` [Example 16, 1-(1-methylethyl)-4-[3-(4-{1-[3-(trifluoromethyl)[1,2,4]triazolo[4,3-b]pyridazin-6-yl]piperidin-4-yl}phenoxy)propyl]piperazin-2-one] displayed an IC50 of 610 nM.

The compound `COCCN1CCN(CCCOc2ccc(C3CCN(c4ccc5nnc(C(F)(F)F)n5n4)CC3)cc2)CC1=O` [Example 17, 1-(2-methoxyethyl)-4-[3-(4-{1-[3-(trifluoromethyl)[1,2,4]triazolo[4,3-b]pyridazin-6-yl]piperidin-4-yl}phenoxy)propyl]piperazin-2-one] had a half-maximal inhibitory concentration (IC50) of 530 nM.

The compound `CCN1CCN(CCOc2ccc(C3CCN(c4ccc5nnc(C(F)(F)F)n5n4)CC3)cc2)CC1=O` [Example 18, 1-ethyl-4-[2-(4-{1-[3-(trifluoromethyl)[1,2,4]triazolo[4,3-b]pyridazin-6-yl]piperidin-4-yl}phenoxy)ethyl]piperazin-2-one] returned an IC50 of 310 nM.

`CC(C)N1CCN(CCOc2ccc(C3CCN(c4ccc5nnc(C(F)(F)F)n5n4)CC3)cc2)CC1=O` [Example 19, 1-(1-methylethyl)-4-[2-(4-{1-[3-(trifluoromethyl)[1,2,4]triazolo[4,3-b]pyridazin-6-yl]piperidin-4-yl}phenoxy)ethyl]piperazin-2-one] showed an IC50 of 710 nM.

`COCCN1CCN(CCOc2ccc(C3CCN(c4ccc5nnc(C(F)(F)F)n5n4)CC3)cc2)CC1=O` [Example 20, 1-(2-methoxyethyl)-4-[2-(4-{1-[3-(trifluoromethyl)[1,2,4]triazolo[4,3-b]pyridazin-6-yl]piperidin-4-yl}phenoxy)ethyl]piperazin-2-one] returned an IC50 of 570 nM.

Compound `O=C(CO)N1CCN(CCOc2ccc(C3CCN(c4ccc5nnc(C(F)(F)F)n5n4)CC3)cc2)CC1` [Example 21, 2-oxo-2-{4-[2-(4-{1-[3-(trifluoromethyl)[1,2,4]triazolo[4,3-b]pyridazin-6-yl]piperidin-4-yl}phenoxy)ethyl]piperazin-1-yl]ethanol] showed a 50% inhibitory concentration (IC50) of 1800 nM.

For the compound `COCC(=O)N1CCN(CCOc2ccc(C3CCN(c4ccc5nnc(C(F)(F)F)n5n4)CC3)cc2)CC1` [Example 22, 6-[4-(4-{2-[4-(methoxyacetyl)piperazin-1-yl]ethoxy}phenyl)piperidin-1-yl]-3-(trifluoromethyl)[1,2,4]triazolo[4,3-b]pyridazine], the concentration for half-maximal inhibition (IC50) was 1500 nM.

Consider `C[C@H](O)C(=O)N1CCN(CCOc2ccc(C3CCN(c4ccc5nnc(C(F)(F)F)n5n4)CC3)cc2)CC1` [Example 23, (2S)-1-oxo-1-{4-[2-(4-{1-[3-(trifluoromethyl)[1,2,4]triazolo[4,3-b]pyridazin-6-yl]piperidin-4-yl}phenoxy)ethyl]piperazin-1-yl}propan-2-ol], for which the IC50 is 900 nM.

`C[C@@H](O)C(=O)N1CCN(CCOc2ccc(C3CCN(c4ccc5nnc(C(F)(F)F)n5n4)CC3)cc2)CC1` [Example 24, (2R)-1-oxo-1-{4-[2-(4-{1-[3-(trifluoromethyl)[1,2,4]triazolo[4,3-b]pyridazin-6-yl]piperidin-4-yl}phenoxy)ethyl]piperazin-1-yl}propan-2-ol] came in with a half-inhibitory concentration (IC50) of 1700 nM.

As to `CO[C@@H](C)C(=O)N1CCN(CCOc2ccc(C3CCN(c4ccc5nnc(C(F)(F)F)n5n4)CC3)cc2)CC1` [Example 25, 6-{4-[4-(2-{4-[(2S)-2-methoxypropanoyl]piperazin-1-yl}ethoxy)phenyl]piperidin-1-yl}-3-(trifluoromethyl)[1,2,4]triazolo[4,3-b]pyridazine], the IC50 came out at 1200 nM.

In turn, `CC(=O)N1CCN(C[C@@H](C)Oc2ccc(C3CCN(c4ccc5nnc(C(F)(F)F)n5n4)CC3)cc2)CC1` [Example 26, 6-(4-{4-[(1R)-2-(4-acetylpiperazin-1-yl)-1-methylethoxy]phenyl}piperidin-1-yl)-3-(trifluoromethyl)[1,2,4]triazolo[4,3-b]pyridazine] had an IC50 of 160 nM.

As to `CC(=O)N1CCN(C[C@H](C)Oc2ccc(C3CCN(c4ccc5nnc(C(F)(F)F)n5n4)CC3)cc2)CC1` [Example 27, 6-(4-{4-[(1S)-2-(4-acetylpiperazin-1-yl)-1-methylethoxy]phenyl}piperidin-1-yl)-3-(trifluoromethyl) [1,2,4]triazolo[4,3-b]pyridazine], half-maximal inhibition (IC50) required 880 nM.

For `COC[C@H](CN1CCN(C(C)=O)CC1)Oc1ccc(C2CCN(c3ccc4nnc(C(F)(F)F)n4n3)CC2)cc1` [Example 28, 6-(4-{4-[(1S)-2-(4-acetylpiperazin-1-yl)-1-(methoxymethyl)ethoxy]phenyl}piperidin-1-yl)-3-(trifluoromethyl)[1,2,4]triazolo[4,3-b]pyridazine], inhibition was half-maximal at 400 nM (IC50).

Compound `COC[C@@H](CN1CCN(C(C)=O)CC1)Oc1ccc(C2CCN(c3ccc4nnc(C(F)(F)F)n4n3)CC2)cc1` [Example 29, 6-(4-{4-[(1R)-2-(4-acetylpiperazin-1-yl)-1-(methoxymethyl)ethoxy]phenyl}piperidin-1-yl)-3-(trifluoromethyl)[1,2,4]triazolo[4,3-b]pyridazine] registered a half-inhibitory concentration (IC50) of 490 nM.

Compound `CC(=O)N1CCN(CCOc2ccc(C3(O)CCN(c4ccc5nnc(C(F)(F)F)n5n4)CC3)c(C)c2)CC1` [Example 30, 4-{4-[2-(4-acetylpiperazin-1-yl)ethoxy]-2-methylphenyl}-1-[3-(trifluoromethyl)[1,2,4]-triazolo[4,3-b]pyridazin-6-yl]piperidin-4-ol] displayed an IC50 of 210 nM.
